Reference: patent US7220784B2, “Substituted stilbenes and their reactions” (priority 2000, dated 2007)
Read-outs that look alike come from different tables or passages of the source.

What was measured:
[1] = test system: A2780; assay: Cytotoxicity/growth inhibition assay (MTT), A2780; assay type: cell-based
Protocol: (§1) The following assays (1–5) were carried out as described in our paper (Woods, et al, British Journal of Cancer, 71, 705–711 (1995)). In addition to the cell lines described in this paper, other established human cell lines (K562, HUVEC, H460, BE, H529, and HT29) were used in the cytotoxicity/growth inhibition assay. • (1) Inhibition of tubulin assembly. The figure quoted is the concentration required to reduce assembly of tubulin by 50%. Tubulin assembly is monitored by light scatter/absorption at 350 nm.
(§2) (2) Competition for the colchicine binding site on tubulin. The figure quoted represents the % of ^3H-colchicine bound following co-incubation of test compound and ^3H-cochicine with isolated tubulin. Where ester pro-drugs were used the experiments were carried out in the presence and absence of porcine liver esterase. • (3) Cytotoxicity/growth inhibition assay. This was carried out by the MTT assay. • (4) Permeability (shape-change) assay in endothelial cells. This was carried out using a method based on that of Watts et al. (Anticancer Res., 17, 71–75, (1997)). This involved the diffusion of a fluorescently labelled dextran through a barrier of endothelial cells (HUVEC) grown to confluence on a porous membrane. The effect of agents to alter the shape of these cells results in an increase in the permeability of the cells to the dye. The figure represents the increase in permeability over control cultures when drug is added (30 minutes, 1 mM.). • (5) Experiments to study the anti-vascular effects of these agents were carried out as described previously by our group. (Zhao et al, European Journal of Nuclear Medicine, 26, 231–238 (1999)). The anti-vascular effects of the agents were monitored by either positron emission tomography (PET) or by histologogical examination following treatment of mice bearing T50:80 murine breast tumours, or H460 human lung tumours. • (6) Anti-tumour efficacy of agents was determined in xenografts of H460 human lung cancer. Animals (n=5) were trated either with 5 daily injections and tumour size measured with time following treatment. • (7) The pharmacokinetic profile of agents was determined in mice following injection with drug. Blood was taken at various times following treatment and analysed by HPLC with UV detection. The HPLC conditions were isocratic using a 5 micron C18 BDS column (150×4.6) ad eluting with 75% MeOH in water with a detection wavelength of 290 nm. […] (AND(P)H:quinone oxidoreductace, EC 1.6.99.2). DT-diaphorase is an enzyme over-expressed in a number of human tumours. […] This two-electron reducing enzyme can be used to selectively activate prodrugs within cancers which over-express the enzyme.

[2] = test system: K562 human myelogeneous leukaemia cell line; assay: Cytotoxicity/growth inhibition assay (MTT), K562; assay type: cell-based; conditions: Homo sapiens, K562; MTT; read-out: K562 IC50
How it was run: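 Growth inhibition of P388 murine and K562 human leukaemia cells measured by MTT assay.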

[3] = test system: T1, tubulin; assay: Inhibition of tubulin assembly; assay type: biochemical; conditions: concentration required to reduce assembly of tubulin by 50%
T1 construct: other: concentration required to reduce assembly of tubulin by 50%
Protocol: as §1

[4] = test system: colchicine binding site on tubulin; assay: Competition for the colchicine binding site on tubulin
[5] = test system: A2780/ADR; assay: Cytotoxicity/growth inhibition assay (MTT), A2780/ADR; assay type: cell-based
Protocol: as §1, §2

[6] = test system: colchicine binding site on tubulin; assay: Competition for the colchicine binding site on tubulin; conditions: % of 3H-colchicine bound; for Colchicine displacement protein:drug 1:10 (with esterase): with porcine liver esterase
Protocol: as §2, with “This was carried out using a method based on that of Watts et al. (Anticancer Res., 17, 71–75, (1997)).” left out, “(Zhao et al, European Journal of Nuclear Medicine, 26, 231–238 (1999)).” left out, “detection.” for “detection. The HPLC conditions were isocratic using a 5 micron C18 BDS column (150×4.6) ad eluting with 75% MeOH in water with a detection wavelength of 290 nm.”

[7] = Homo sapiens, A2780, read-out: IC50 (nM) A2780

SMILES: COc1cc(C=Cc2cc(F)c(OC)c(F)c2)cc(OC)c1OC [Compound 00-82]
- IC50 ([1]; Homo sapiens, A2780, read-out: A2780 IC50): 60 nM
- IC50 [2]: 50 nM
- IC50 [3]: 7.2 µM
- Colchicine % Inhibition [4]: 39.5%

SMILES: COc1ccc(C=Cc2cc(OC)c(OC)c(OC)c2)c(F)c1F [Compound 00-105]
- IC50 [2]: 20 nM
- IC50 [3]: > 100 µM
- Colchicine % Inhibition [4]: 3.6%

SMILES: COc1ccc(C=Cc2cc(OC)c(OC)c(OC)c2)cc1OC(=O)C(Cc1ccccc1)NC(=O)OC(C)(C)C (stereo not shown) [Compound 33, Boc-Phenylalanine Combretastatin A-4]
- IC50 [1, 7]: 2.8 nM
- IC50 ([5]; A2780 ADR): 4 nM
- IC50 [3]: 3.6 µM
- Colchicine displacement protein:drug 1:10 (with esterase) [6]: 2%
- Colchicine displacement protein:drug 1:10 (without esterase) [6]: 92%

SMILES: CCC(C)C(NC(=O)OC(C)(C)C)C(=O)Oc1cc(C=Cc2cc(OC)c(OC)c(OC)c2)ccc1OC (stereo not shown) [Compound 34]
- IC50 [1, 7]: > 60 nM
- IC50 ([5]; A2780 ADR): > 60 nM
- IC50 [3]: 6.2 µM
- Colchicine displacement protein:drug 1:10 (with esterase) [6]: 2%
- Colchicine displacement protein:drug 1:10 (without esterase) [6]: 65%

SMILES: COc1ccc(/C=C\c2cc(OC)c(OC)c(OC)c2)cc1OC(=O)CNC(=O)OC(C)(C)C [Compound 35]
- IC50 [1, 7]: 4.3 nM
- IC50 ([5]; A2780 ADR): 5 nM
- IC50 [3]: 7.5 µM
- Colchicine displacement protein:drug 1:10 (with esterase) [6]: 4%
- Colchicine displacement protein:drug 1:10 (without esterase) [6]: 65%

SMILES: COc1ccc(C=Cc2cc(OC)c(OC)c(OC)c2)cc1OC(=O)C(Cc1c[nH]c2ccccc12)NC(=O)OC(C)(C)C (stereo not shown) [Compound 36]
- IC50 [1, 7]: 1.7 nM
- IC50 ([5]; A2780 ADR): 2 nM
- IC50 [3]: 4 µM

SMILES: COc1ccc(C=Cc2cc(OC)c(OC)c(OC)c2)cc1OC(=O)C(CCSC)NC(=O)OC(C)(C)C (stereo not shown) [Compound 37]
- IC50 [1, 7]: 6.7 nM
- IC50 ([5]; A2780 ADR): 9.1 nM
- IC50 [3]: 6 µM
- Colchicine displacement protein:drug 1:10 (with esterase) [6]: 2%
- Colchicine displacement protein:drug 1:10 (without esterase) [6]: 88%

SMILES: COc1ccc(C=Cc2cc(OC)c(OC)c(OC)c2)cc1OC(=O)C(CC(C)C)NC(=O)OC(C)(C)C (stereo not shown) [Compound 38]
- IC50 [1, 7]: 14 nM
- IC50 ([5]; A2780 ADR): 27 nM
- IC50 [3]: 7.8 µM
- Colchicine displacement protein:drug 1:10 (without esterase) [6]: 72%

SMILES: COc1ccc(C=Cc2cc(OC)c(OC)c(OC)c2)cc1OC(=O)C(C)NC(=O)OC(C)(C)C (stereo not shown) [Compound 39]
- IC50 [1, 7]: 2.7 nM
- IC50 ([5]; A2780 ADR): 4.6 nM
- IC50 [3]: 8 µM
- Colchicine displacement protein:drug 1:10 (with esterase) [6]: 2%
- Colchicine displacement protein:drug 1:10 (without esterase) [6]: 77%

SMILES: COc1ccc(/C=C\c2cc(OC)c(OC)c(OC)c2)cc1OC(=O)C(Cc1c[nH]cn1)NC(=O)OC(C)(C)C (stereo not shown) [Compound 40]
- IC50 ([1]; read-out: IC50 (nM) A2780): 2.2 nM
- IC50 [5]: 4.3 nM
- IC50 [3]: 7 µM
- Colchicine displacement protein:drug 1:10 (with esterase) [6]: 4%
- Colchicine displacement protein:drug 1:10 (without esterase) [6]: 2%

SMILES: COc1ccc(C=Cc2cc(OC)c(OC)c(OC)c2)cc1OC(=O)C1CCCN1C(=O)OC(C)(C)C (stereo not shown) [Compound 41]
- IC50 [1, 7]: 29 nM
- IC50 ([5]; A2780 ADR): 39 nM
- IC50 [3]: 9 µM
- Colchicine displacement protein:drug 1:10 (with esterase) [6]: 2%
- Colchicine displacement protein:drug 1:10 (without esterase) [6]: 78%
